These results are taken from patent US20240269298A1, “PHOSPHONYL DERIVATIVE, AND COMPOSITION AND PHARMACEUTICAL APPLICATION THEREOF” (XIZANG HAISCO PHARMACEUTICAL CO., LTD., priority 2021, published 2024).

The subject of data set [1] is NCI-H1975 (EGFR-L858R-T790M) cells. In words: Inhibitory activity on proliferation of NCI-H1975 (EGFR-L858R-T790M) cells (CTG, 72 h). The class given is cell-based. The conditions noted are these: Homo sapiens. The gist of the method: (§1)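 IC50 values come from S-shaped dose-survival fits of CTG signal expressed as % of vehicle. Compound exposure lasted 72 h at 37 °C with 0.1% DMSO; seeding was 3000 A431 cells/well in DMEM+10% FBS and 1000 NCI-H1975 cells/well in RPMI1640+10% FBS.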

The test system of another data set is A431 (EGFR-WT) cells. Kind of data set: Inhibitory activity on proliferation of A431 (EGFR-WT) cells (CTG, 72 h). The class given is cell-based. The conditions noted are these: Homo sapiens, A-431. The gist of the method: as §1
In data set [2] the test system is NCI-H1975 EGFR-L858R-T790M-C797S cells. Kind of data set: Inhibitory activity on proliferation of NCI-H1975 EGFR-L858R-T790M-C797S cells (CellTiter-Glo, 72 h). The class given is cell-based. The conditions noted are these: Homo sapiens. Here is the method: NCI-H1975 EGFR-L858R-T790M-C797S cells were cultured in an incubator at 37° C. with 5% CO2, and the culture medium was RPMI1640+10% FBS+100 μg/mL hygromycin. The cells in the logarithmic phase were collected, and the cell suspension was adjusted to an appropriate concentration with a hygromycin-free culture medium, and then plated on a 96-well plate at a density of 1500 cells/well and a volume of 90 μL. 10 μL of the compounds at different concentrations were added, and a vehicle control group (cells plus DMSO) was provided, wherein the concentration of DMSO was 0.1%. The cell culture plate was cultured in an incubator at 37° C. with 5% CO2 for 72 hours. After the incubation was completed, according to operation instructions for a CellTiter-Glo kit (Promega, G7572), 50 μL of CTG solution, which was already pre-melted and equilibrated to room temperature, was added to each well, and the mixtures were uniformly mixed for 2 min using a microplate shaker. The plate was placed at room temperature for 10 min, and then […] signal values were measured using a microplate reader (Envision 2104). […] was processed based on formula (2), and using the GraphPad Prism 5.0 software and nonlinear regression model, S-shaped dose-survival curves were plotted, and IC50 values were calculated. wherein Vsample was the readout of the drug-treated group, and Vvehicle control was the readout of the control group.

Data set [3] has as its target T1, EGFR protein in NCI-H1975 EGFR-L858R-T790M-C797S cells (Homo sapiens, UniProt P00533, C797S/L858R/T790M).
T1 construct: expressed in transfected cells; host or cells: NCI-H1975 EGFR-L858R-T790M-C797S (kept under hygromycin selection)
Kind of data set: Degradation activity on EGFR protein in NCI-H1975 EGFR-L858R-T790M-C797S cells, Method I (western blot, 72 h). The class given is cell-based. Conditions: 72 h incubation, EGFR protein relative to DMSO control. Here is the method:
Protein sample preparation: NCI-H1975 EGFR-L858R-T790M-C797S cells were cultured in an incubator at 37° C. with 5% CO2, and the culture medium was RPMI1640+10% FBS+100 μg/mL hygromycin. The cells in the logarithmic phase were collected, and the cell suspension was adjusted to an appropriate concentration with a hygromycin-free culture medium, plated on a 6-well plate at a density of 200000 cells/well and a volume of 2 mL, and cultured overnight in an incubator at 37° C. with 5% CO2. The next day, the compounds at different concentrations were added. DMSO control wells were provided, wherein the concentration of DMSO in all wells was 0.1%. The 6-well plate was cultured in an incubator at 37° C. with 5% CO2 for 72 h, and then 30 μL of RIPA lysates (Beyotime, Cat. P0013B) containing protease inhibitors (Beyotime, Cat. P0013B) were added. The mixtures were lysed on ice for 30 min. Centrifugation was carried out at 13000 rpm/min at 4° C. for 20 min to collect protein supernatant samples, and protein quantification was performed by the BCA method. Samples for western blot detection were prepared.
Western blot detection: 20 μg of protein samples were added to each well, subjected to polyacrylamide gel electrophoresis and transferred to a membrane, and then diluted anti-EGFR (CST, Cat. 4267S) and […] (Kangchen, Cat. KC-5G4) antibodies were added and incubated overnight at 4° C. After washing the membrane, diluted goat anti-rabbit (Licor, Cat. 926-32211) and goat anti-mouse (Licor, Cat. 926-68070) antibodies were added and incubated in the dark for 45 min. Scanning and detection at wavelengths of 700 nm and 800 nm were performed with a far-infrared imaging system (Odyssey).
According to formula (3), the expression level of EGFR protein in the cells relative to the DMSO control group was calculated after incubation with different concentrations of compounds. wherein EGFRcompound was the fluorescence value of EGFR protein after incubation with compounds, and EGFRvehicle was the fluorescence value of EGFR protein in the DMSO control group. Using the Origin 9.2 software, the drug concentration DC50 values when the expression level of EGFR protein was 50% relative to the DMSO control group were calculated.
(In general: A western blot detects proteins with antibodies after separation by electrophoresis.)

The nature of data set [4]: Pharmacokinetic test in mice. The class given is in vivo. Conditions: male, ICR, mouse, po, administration i.g. (10 mg/kg), plasma. The gist of the method:
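Male ICR mice (20-25 g), fasted 12-14 h before dosing and fed 4 h after, received a single intravenous or intragastric dose. Orbital plasma sampled from 0 to 24 h (5 min-24 h points); LC-MS/MS quantitation for PK parameters and bioavailability.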

Where [5] appears, read: read-out: IC50 (value in brackets).

Structures are written as SMILES. Like-named read-outs stand apart in the source and are kept apart here.

T1 sequence (P00533 25-1210 T790M/C797S/L858R): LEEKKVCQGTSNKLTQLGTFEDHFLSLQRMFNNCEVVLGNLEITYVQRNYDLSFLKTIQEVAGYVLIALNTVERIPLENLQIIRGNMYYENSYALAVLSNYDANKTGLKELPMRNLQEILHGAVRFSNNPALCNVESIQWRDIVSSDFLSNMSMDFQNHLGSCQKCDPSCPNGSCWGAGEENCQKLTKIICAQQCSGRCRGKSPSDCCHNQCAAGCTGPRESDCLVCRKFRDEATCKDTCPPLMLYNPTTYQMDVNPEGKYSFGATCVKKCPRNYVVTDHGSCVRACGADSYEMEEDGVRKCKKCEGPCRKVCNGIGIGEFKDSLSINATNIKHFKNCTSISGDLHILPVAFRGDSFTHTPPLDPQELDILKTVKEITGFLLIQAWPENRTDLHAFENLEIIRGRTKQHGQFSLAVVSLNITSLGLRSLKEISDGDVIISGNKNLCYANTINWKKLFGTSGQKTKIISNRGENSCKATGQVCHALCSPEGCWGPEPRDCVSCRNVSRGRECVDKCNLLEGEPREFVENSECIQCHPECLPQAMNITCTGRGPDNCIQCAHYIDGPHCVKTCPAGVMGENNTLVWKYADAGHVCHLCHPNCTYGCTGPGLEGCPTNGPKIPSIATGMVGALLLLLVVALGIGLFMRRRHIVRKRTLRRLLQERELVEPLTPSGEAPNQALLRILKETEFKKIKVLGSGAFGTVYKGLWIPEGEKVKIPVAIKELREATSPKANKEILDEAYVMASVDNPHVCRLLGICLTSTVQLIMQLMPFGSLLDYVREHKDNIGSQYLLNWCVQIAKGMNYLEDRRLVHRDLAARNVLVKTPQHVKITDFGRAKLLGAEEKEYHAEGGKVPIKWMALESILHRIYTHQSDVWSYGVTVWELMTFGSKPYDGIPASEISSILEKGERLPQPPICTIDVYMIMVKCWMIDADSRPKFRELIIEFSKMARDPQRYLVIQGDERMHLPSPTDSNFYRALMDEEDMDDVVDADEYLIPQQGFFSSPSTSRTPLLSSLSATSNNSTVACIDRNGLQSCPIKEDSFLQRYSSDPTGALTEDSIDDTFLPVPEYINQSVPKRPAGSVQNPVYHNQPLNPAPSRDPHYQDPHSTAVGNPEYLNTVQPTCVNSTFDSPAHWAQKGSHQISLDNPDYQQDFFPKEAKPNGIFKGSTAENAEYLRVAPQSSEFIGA

Consider `COc1cc(N2CCC(N3CCN(CC4CCN(c5ccc6c(c5)C(=O)N(C5CCC(=O)NC5=O)C6=O)CC4)CC3)CC2)c(-c2cnn(C)c2)cc1Nc1ncc(Br)c(Nc2ccc(-c3ccccc3)cc2P(C)(C)=O)n1` (stereo not shown) [Trifluoroacetate of compound 23, 5-(4-((4-(1-(4-((5-bromo-4-((3-(dimethylphosphoryl)-[1,1′-biphenyl]-4-yl)amino)pyrimidin-2-yl)amino)-5-methoxy-2-(1-methyl-1H-pyrazol-4-yl)phenyl)piperidin-4-yl)piperazin-1-yl)methyl)piperidin-1-yl)-2-(2,6-dioxopiperidin-3-yl)isoindoline-1,3-dione], for which the IC50 (commonly the concentration that inhibits the measured activity by half) was less than 100 nM in data set [1] (read-out: IC50 (class symbol)); 41 nM in data set [1] (setting [5]); not below 10 µM in the data set with A431 (EGFR-WT) cells; less than 200 nM in data set [2] (read-out: IC50 (class symbol)); 83 nM in data set [2] (read-out: IC50 (value)). In data set [3], the DC50 – broadly, the midpoint of the concentration-degradation curve – was less than 100 nM.
Turning to `COc1cc(N2CCC3(CCN(CC4CCN(c5ccc6c(c5)C(=O)N(C5CCC(=O)NC5=O)C6=O)CC4)CC3)CC2)c(-c2cnn(C)c2)cc1Nc1ncc(Br)c(Nc2ccc(-c3ccccc3)cc2P(C)(C)=O)n1` (stereo not shown) [Compound 57, 5-(4-((9-(4-((5-bromo-4-((3-(dimethylphosphoryl)-[1,1′-biphenyl]-4-yl)amino)pyrimidin-2-yl)amino)-5-methoxy-2-(1-methyl-1H-pyrazol-4-yl)phenyl)-3,9-diazaspiro[5.5]undecan-3-yl)methyl)piperidin-1-yl)-2-(2,6-dioxopiperidin-3-yl)isoindoline-1,3-dione], the IC50 in data set [1] (read-out: IC50 (class symbol)) is less than 100 nM; in data set [1] (setting [5]) it was 21 nM; with A431 (EGFR-WT) cells, not below 10 µM; in data set [2] (read-out: IC50 (class symbol)), less than 200 nM; in data set [2] (read-out: IC50 (value)) it was 65 nM. This compound displayed a DC50 in data set [3] of less than 100 nM.
With `COc1cc(N2CCC(N3CCC4(CCCN(c5ccc6c(c5)C(=O)N(C5CCC(=O)NC5=O)C6=O)C4)CC3)CC2)c(-c2cnn(C)c2)cc1Nc1ncc(Cl)c(Nc2ccc(-c3ccccc3)cc2P(C)(C)=O)n1` (stereo not shown) [Compound 60, 5-(9-(1-(4-((5-chloro-4-((3-(dimethylphosphoryl)-[1,1′-biphenyl]-4-yl)amino)pyrimidin-2-yl)amino)-5-methoxy-2-(1-methyl-1H-pyrazol-4-yl)phenyl)piperidin-4-yl)-2,9-diazaspiro [5.5]undecan-2-yl)-2-(2,6-dioxopiperidin-3-yl)isoindoline-1,3-dione], the results for the IC50 (in data set [1] (read-out: IC50 (class symbol)); in data set [1] (setting [5]); in the data set with A431 (EGFR-WT) cells) were less than 100 nM, 34 nM and not below 10 µM, respectively. The AUC(0-t) – broadly, exposure summed from dosing to a finite time, without extrapolation to infinity – in data set [4] stood at 3200 ng·h/mL. The compound further returned a DC50 in data set [3] of less than 100 nM.
In the case of `COc1cc(N2CCC(N3CCC4(CCCN(c5ccc6c(c5)C(=O)N(C5CCC(=O)NC5=O)C6=O)C4)CC3)CC2)c(-c2cnn(C)c2)cc1Nc1ncc(Br)c(Nc2ccc(-c3ccccc3)cc2P(C)(C)=O)n1` (stereo not shown) [Compound 62, 5-(9-(1-(4-((5-bromo-4-((3-(dimethylphosphoryl)-[1,1′-biphenyl]-4-yl)amino)pyrimidin-2-yl)amino)-5-methoxy-2-(1-methyl-1H-pyrazol-4-yl)phenyl)piperidin-4-yl)-2,9-diazaspiro[5.5]undecan-2-yl)-2-(2,6-dioxopiperidin-3-yl)isoindoline-1,3-dione], the figures for the IC50 (in data set [1] (read-out: IC50 (class symbol)); in data set [1] (setting [5]); with A431 (EGFR-WT) cells) were less than 100 nM, 28 nM and not below 10 µM, respectively. In data set [4], this compound registered an AUC(0-t) of 2310 ng·h/mL. In addition, the DC50 in data set [3] is less than 100 nM.
In the case of `COc1cc(N2CCC(CN3CCN(c4ccc5c(c4)C(=O)N(C4CCC(=O)NC4=O)C5=O)CC3)CC2)c(-c2cnn(C)c2)cc1Nc1ncc(Br)c(Nc2ccc(-c3ccccc3)cc2P(C)(C)=O)n1` (stereo not shown) [Compound 45, 5-(4-((1-(4-((5-bromo-4-((3-(dimethylphosphoryl)-[1,1′-biphenyl]-4-yl)amino)pyrimidin-2-yl)amino)-5-methoxy-2-(1-methyl-1H-pyrazol-4-yl)phenyl)piperidin-4-yl)methyl)piperazin-1-yl)-2-(2,6-dioxopiperidin-3-yl)isoindoline-1,3-dione], the IC50 in data set [1] (read-out: IC50 (class symbol)) is 100 to 500 nM; in data set [1] (setting [5]), 105 nM; with A431 (EGFR-WT) cells, not below 10 µM; in data set [2] (read-out: IC50 (class symbol)) it was 200 to 500 nM; in data set [2] (read-out: IC50 (value)), 364 nM. Also, in data set [4], the AUC(0-t) stood at 59200 ng·h/mL.
In the case of `COc1cc(N2CCC(CN3CCN(c4ccc5c(c4)C(=O)N(C4CCC(=O)NC4=O)C5=O)CC3)CC2)c(-c2cnn(C)c2)cc1Nc1ncc(Br)c(Nc2ccc(-c3ccccc3F)cc2P(C)(C)=O)n1` (stereo not shown) [Compound 101, 5-(4-((1-(4-((5-bromo-4-((3-(dimethylphosphoryl)-2′-fluoro-[1,1′-biphenyl]-4-yl)amino)pyrimidin-2-yl)amino)-5-methoxy-2-(1-methyl-1H-pyrazol-4-yl)phenyl)piperidin-4-yl)methyl)piperazin-1-yl)-2-(2,6-dioxopiperidin-3-yl)isoindoline-1,3-dione], the IC50 was 100 to 500 nM in data set [1] (read-out: IC50 (class symbol)); 107 nM in data set [1] (setting [5]); not below 10 µM in the data set with A431 (EGFR-WT) cells; less than 200 nM in data set [2] (read-out: IC50 (class symbol)); 152 nM in data set [2] (read-out: IC50 (value)). Further, in data set [4], the AUC – broadly, concentration integrated over time – was determined as 118 µg·h/mL. Moreover, the half-life – broadly, the time in which the quantity being followed falls by half – in data set [4] is 762 min.
For `COc1cc(N2CCC3(CCN(CC4CCN(c5ccc6c(c5)C(=O)N(C5CCC(=O)NC5=O)C6=O)CC4)CC3)CC2)c(-c2cnn(C)c2)cc1Nc1ncc(Cl)c(Nc2ccc(-c3ccccc3)cc2P(C)(C)=O)n1` (stereo not shown) [Compound 59, 5-(4-((9-(4-((5-chloro-4-((3-(dimethylphosphoryl)-[1,1′-biphenyl]-4-yl)amino)pyrimidin-2-yl)amino)-5-methoxy-2-(1-methyl-1H-pyrazol-4-yl)phenyl)-3,9-diazaspiro[5.5]undecan-3-yl)methyl)piperidin-1-yl)-2-(2,6-dioxopiperidin-3-yl)isoindoline-1,3-dione], the figures for the concentration for half-maximal inhibition (IC50) (in data set [1] (read-out: IC50 (class symbol)); in data set [1] (setting [5]); with A431 (EGFR-WT) cells) were less than 100 nM, 92 nM and not below 10 µM, respectively. In data set [4], this compound returned an AUC(0-t) of 4460 ng·h/mL. The same compound gave a DC50 in data set [3] of less than 100 nM.
`COc1cc(N2CCC(CN3CCC4(CC3)CCN(c3cc5c(cc3F)C(=O)N(C3CCC(=O)NC3=O)C5=O)CC4)CC2)c(-c2cnn(C)c2)cc1Nc1ncc(Br)c(Nc2ccc(-c3ccccc3)cc2P(C)(C)=O)n1` (stereo not shown) [Compound 47, 5-(9-((1-(4-((5-bromo-4-((3-(dimethylphosphoryl)-[1,1′-biphenyl]-4-yl)amino)pyrimidin-2-yl)amino)-5-methoxy-2-(1-methyl-1H-pyrazol-4-yl)phenyl)piperidin-4-yl)methyl)-3,9-diazaspiro[5.5]undecan-3-yl)-2-(2,6-dioxopiperidin-3-yl)-6-fluoroisoindoline-1,3-dione]: the IC50 in data set [1] (read-out: IC50 (class symbol)) was 100 to 500 nM; in data set [1] (setting [5]), 110 nM; in the data set with A431 (EGFR-WT) cells, not below 10 µM; in data set [2] (read-out: IC50 (class symbol)), less than 200 nM; in data set [2] (read-out: IC50 (value)), 72 nM. The same compound registered an AUC(0-t) in data set [4] of 30600 ng·h/mL.
